Usually IC50 stands for the point on the concentration scale where inhibition reaches its midpoint. A lower IC50 goes with greater potency.

A short description of series [1]: Cytotoxicity against KB cells. The class given is cell-based. Particulars: human, read-out: ED50 (the source's name).
In the next series the test system is Leishmania donovani. The series can be described thus: Inhibition of Leishmania donovani. The series is classed as functional, organism-based.
For the next series, the system named is Trypanosoma cruzi. The series can be described thus: Inhibition of Trypanosoma cruzi. The series is classed as functional, organism-based.
Series [2] is described as follows: Therapeutic index, ratio of IC50 for Leishmania donovani to ED50 for KB cells. The class given is cell-based. Conditions: human, read-out: TI.
Series [3] in a line: Therapeutic index, ratio of IC50 for Trypanosoma cruzi to ED50 for KB cells. The class given is cell-based. Particulars: human, read-out: TI.

Values after ≈ are worked out from the molar mass of the structure shown.

Regarding `COC(=O)N1[C@@H]2C=C[C@@](OC)(C(=O)c3c2cc(OC)c(OC)c3OC)N1C(=O)OC`, the CC50 in series [1] was above 300 µg/mL. Also, the IC50 in the series with Leishmania donovani and in the series with Trypanosoma cruzi was above 71 µM each time.
Regarding `CCOc1c(OC)c(OC)cc2c1C(=O)[C@]1(OC)C=C[C@H]2N(C(=O)OC)N1C(=O)OC`, in series [1], the CC50 was above 300 µg/mL. In addition, the IC50 with Leishmania donovani and with Trypanosoma cruzi was above 68.8 µM throughout.
Take `COc1cc2c(c(OCc3ccc(F)cc3)c1OC)C(=O)[C@]1(OC)C=C[C@H]2N(C(=O)OC(C)C)N1C(=O)OC(C)C`: in series [1], the CC50 was above 300 µg/mL. Further, the values for the IC50 in the series on Leishmania donovani and with Trypanosoma cruzi were above 52.4 µM and 18 µM, respectively.
The matching figures for `COC(=O)N1[C@@H]2C=C[C@@](OC)(C(=O)c3c2cc(OC)c(OC)c3OCc2ccccc2)N1C(=O)OC`: above 300 µg/mL, above 60.2 µM and above 60.2 µM.
Turning to `CCOC(=O)N1[C@@H]2C=C[C@@](OC)(C(=O)c3c2cc(OC)c(OC)c3OCC)N1C(=O)OCC`, in series [1], the CC50 was above 300 µg/mL. Moreover, the IC50 in the series with Leishmania donovani and with Trypanosoma cruzi was above 64.6 µM in each case.
Turning to `COC(=O)N1[C@@H]2C=C[C@@](OC)(C(=O)c3c2cc(OC)c(OC)c3OCc2ccc(F)cc2)N1C(=O)OC`, the CC50 in series [1] was 56.6 µg/mL (≈ 110 µM). The IC50 in the series with Leishmania donovani and with Trypanosoma cruzi was above 58.1 µM each time.
With `COC(=O)N1[C@@H]2C=C[C@@](OC)(C(=O)c3c2cc(OC)c(OC)c3OCc2ccccc2F)N1C(=O)OC`, the CC50 in series [1] was 137 µg/mL (≈ 266 µM). Further, the IC50 with Leishmania donovani and with Trypanosoma cruzi was above 58.1 µM each time.
Regarding `CCCOc1c(OC)c(OC)cc2c1C(=O)[C@]1(OC)C=C[C@H]2N(C(=O)OCC)N1C(=O)OCC`, the CC50 in series [1] is above 300 µg/mL. Further, the IC50 in the series on Leishmania donovani and with Trypanosoma cruzi was above 62.7 µM each time.
Regarding `CCOC(=O)N1[C@@H]2C=C[C@@](OC)(C(=O)c3c2cc(OC)c(OC)c3OCc2ccccc2)N1C(=O)OCC`, in series [1], the CC50 came out at 215 µg/mL (≈ 409 µM). In addition, the IC50 was above 57 µM in the series with Leishmania donovani and 54.1 µM in the series with Trypanosoma cruzi.
The matching figures for `CCOC(=O)N1[C@@H]2C=C[C@@](OC)(C(=O)c3c2cc(OC)c(OC)c3OCc2ccc(F)cc2)N1C(=O)OCC`: 51.8 µg/mL (≈ 95.1 µM), above 55.1 µM and 51.3 µM.
The matching figures for `CCOC(=O)N1[C@@H]2C=C[C@@](OC)(C(=O)c3c2cc(OC)c(OC)c3OCc2ccc(Cl)cc2)N1C(=O)OCC`: 99.9 µg/mL (≈ 178 µM), above 53.5 µM and 83.8 µM.
Consider `CCOC(=O)N1[C@@H]2C=C[C@@](OC)(C(=O)c3c2cc(OC)c(OC)c3OCc2ccc(OC)cc2)N1C(=O)OCC`, for which the CC50 in series [1] turned out to be 63.1 µg/mL (≈ 113 µM). Also, the figures for the IC50 with Leishmania donovani and with Trypanosoma cruzi were 9.9 µM and above 53.9 µM, respectively.
The matching figures for `COc1cc2c(c(OC)c1OC)C(=O)[C@]1(OC)C=C[C@H]2N(C(=O)OC(C)C)N1C(=O)OC(C)C`: above 300 µg/mL, above 62.7 µM and above 62.7 µM.
The matching figures for `CCOc1c(OC)c(OC)cc2c1C(=O)[C@]1(OC)C=C[C@H]2N(C(=O)OC(C)C)N1C(=O)OC(C)C`: above 300 µg/mL, above 60.9 µM and above 60.9 µM.
The matching figures for `COc1cc2c(c(OCc3ccccc3)c1OC)C(=O)[C@]1(OC)C=C[C@H]2N(C(=O)OC(C)C)N1C(=O)OC(C)C`: 94 µg/mL (≈ 169 µM), above 54.1 µM and 12.1 µM.
On to `CCOC(=O)N1[C@@H]2C=C[C@@](OC)(C(=O)c3c2cc(OC)c(OC)c3OCc2ccccc2F)N1C(=O)OCC`, for which the CC50 in series [1] amounted to 99.7 µg/mL (≈ 183 µM). For the same molecule, the results for the IC50 with Leishmania donovani and in the series with Trypanosoma cruzi were 8.6 µM and 54.1 µM, respectively. In addition, the selectivity ratio in series [2] was determined as 21.3.
`COC(=O)N1[C@@H]2C=C[C@@](OC)(C(=O)c3c2cc(OC)c(OC)c3OCc2ccc(OC)cc2)N1C(=O)OC`: the CC50 in series [1] is above 300 µg/mL. The half-maximal inhibitory concentration (IC50) with Leishmania donovani and in the series on Trypanosoma cruzi was above 56.8 µM each time.
Consider `COc1cc2c(c(OCc3ccccc3F)c1OC)C(=O)[C@]1(OC)C=C[C@H]2N(C(=O)OC(C)C)N1C(=O)OC(C)C`, for which the CC50 in series [1] worked out at 109 µg/mL (≈ 190 µM). Besides, the IC50 is above 52.4 µM in the series on Leishmania donovani and 9.5 µM with Trypanosoma cruzi.
Turning to `COc1cc2c(c(OCc3ccc(Cl)cc3)c1OC)C(=O)[C@]1(OC)C=C[C@H]2N(C(=O)OC(C)C)N1C(=O)OC(C)C`, in series [1], the CC50 came out at 42 µg/mL (≈ 71.3 µM). Moreover, the IC50 was 47.4 µM in the series on Leishmania donovani and below 1.9 µM in the series with Trypanosoma cruzi. Also, the selectivity ratio in series [3] turned out to be 37.6.
For the molecule `COc1ccc(COc2c(OC)c(OC)cc3c2C(=O)[C@]2(OC)C=C[C@H]3N(C(=O)OC(C)C)N2C(=O)OC(C)C)cc1`, the CC50 in series [1] was 47.9 µg/mL (≈ 81.9 µM). The figures for the IC50 with Leishmania donovani and in the series with Trypanosoma cruzi were above 51.3 µM and 9.8 µM, respectively.
The matching figures for `COC(=O)N1[C@@H]2C=C[C@@](OC)(C(=O)c3c2cc(OC)c(OC)c3O)N1C(=O)OC`: above 300 µg/mL, above 73.5 µM and above 73.5 µM.
The matching figures for `CCCOc1c(OC)c(OC)cc2c1C(=O)[C@]1(OC)C=C[C@H]2N(C(=O)OC)N1C(=O)OC`: above 300 µg/mL, above 66.6 µM and above 66.6 µM.
For `COC(=O)N1[C@@H]2C=C[C@@](OC)(C(=O)c3c2cc(OC)c(OC)c3OCc2ccc(Cl)cc2)N1C(=O)OC`, the CC50 in series [1] was 55.9 µg/mL (≈ 105 µM). Further, the results for the IC50 with Leishmania donovani and in the series with Trypanosoma cruzi were above 56.3 µM and 50.9 µM, respectively.
For the molecule `CCCOc1c(OC)c(OC)cc2c1C(=O)[C@]1(OC)C=C[C@H]2N(C(=O)OC(C)C)N1C(=O)OC(C)C`, the CC50 in series [1] was found to be 299 µg/mL (≈ 590 µM). Moreover, the results for the IC50 with Leishmania donovani and in the series on Trypanosoma cruzi were above 59.2 µM and 42.3 µM, respectively.
The matching figures for `CCCCOc1c(OC)c(OC)cc2c1C(=O)[C@]1(OC)C=C[C@H]2N(C(=O)OC(C)C)N1C(=O)OC(C)C`: 22.1 µg/mL (≈ 42.5 µM), above 57.6 µM and 23.4 µM.
The matching figures for `CCCCOc1c(OC)c(OC)cc2c1C(=O)[C@]1(OC)C=C[C@H]2N(C(=O)OC)N1C(=O)OC`: above 300 µg/mL, above 64.6 µM and 57.4 µM.
The matching figures for `COc1cc2c(c(O)c1OC)C(=O)[C@]1(OC)C=C[C@H]2N(C(=O)OC(C)C)N1C(=O)OC(C)C`: above 300 µg/mL, above 64.6 µM and above 64.6 µM.
For the molecule `CCCCOc1c(OC)c(OC)cc2c1C(=O)[C@]1(OC)C=C[C@H]2N(C(=O)OCC)N1C(=O)OCC`, the CC50 in series [1] stood at 76 µg/mL (≈ 154 µM). In addition, the IC50 in the series with Leishmania donovani and in the series with Trypanosoma cruzi was above 60.9 µM each time.
As for `O=C(Cn1ccnc1[N+](=O)[O-])NCc1ccccc1` [BENZNIDAZOLE], the IC50 with Trypanosoma cruzi was 8.7 µM.

Values taken from ChEMBL document CHEMBL1149540, “Synthesis and in vitro protozoocidal activity of diazabicyclic benzotropolone derivatives” (Bioorg Med Chem Lett, 2007).
